Where two headings read alike, the source gives them in different places.
Columns and labels:
Test in all cases: stopped-flow CO2 hydrase assay
VchCAγ = target: T1, VchCAγ (Vibrio cholerae, UniProt Q9KVT1); format: biochemical; details: CO2 hydration, 10 mM Tris pH 8.3, 0.1 M Na2SO4, 25 °C, 15 min preincubation
T1 construct: gene VC_0058

PgiCAβ = target: T2, PgiCAβ (Porphyromonas gingivalis, UniProt B2RL07); format: biochemical; details: CO2 hydration, 10 mM Tris pH 8.3, 0.1 M Na2SO4, 25 °C, 15 min preincubation
T2 construct: gene PGN_1533
T2 sequence (B2RL07 19-242): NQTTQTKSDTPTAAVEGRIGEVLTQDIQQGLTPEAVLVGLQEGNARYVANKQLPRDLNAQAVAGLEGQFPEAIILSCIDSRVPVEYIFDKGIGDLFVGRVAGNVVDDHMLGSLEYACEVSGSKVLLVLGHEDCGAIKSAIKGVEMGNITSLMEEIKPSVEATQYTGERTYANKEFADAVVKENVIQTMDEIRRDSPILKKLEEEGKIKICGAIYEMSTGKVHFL

TweCAδ = target: T3, TweCAδ (Conticribra weissflogii, UniProt Q5U9J1); format: biochemical; details: CO2 hydration, 10 mM HEPES pH 7.5, 0.1 M Na2SO4, 25 °C, 15 min preincubation
T3 construct: gene ca1
T3 sequence (Q5U9J1 1-281): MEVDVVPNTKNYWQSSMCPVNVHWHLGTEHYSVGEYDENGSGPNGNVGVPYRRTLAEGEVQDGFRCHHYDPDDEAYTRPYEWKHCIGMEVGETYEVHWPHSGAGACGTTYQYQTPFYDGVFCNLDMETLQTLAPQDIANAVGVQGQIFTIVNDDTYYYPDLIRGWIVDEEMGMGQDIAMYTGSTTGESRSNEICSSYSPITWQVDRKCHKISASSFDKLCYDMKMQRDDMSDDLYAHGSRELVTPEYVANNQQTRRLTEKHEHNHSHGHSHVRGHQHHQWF

VchCAβ = target: T4, VchCAβ (Vibrio cholerae, UniProt Q9KUD6); format: biochemical
T4 construct: gene VC_0586
T4 sequence (Q9KUD6 1-222): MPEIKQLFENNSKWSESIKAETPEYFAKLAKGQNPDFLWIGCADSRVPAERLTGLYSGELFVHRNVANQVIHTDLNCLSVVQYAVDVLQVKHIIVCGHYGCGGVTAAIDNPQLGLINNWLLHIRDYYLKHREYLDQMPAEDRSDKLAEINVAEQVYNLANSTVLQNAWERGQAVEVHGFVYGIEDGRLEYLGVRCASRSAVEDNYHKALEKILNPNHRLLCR

PgiCAγ = target: T5, PgiCAγ; format: biochemical, Porphyromonas gingivalis; details: CO2 hydration, 10 mM Tris pH 8.3, 0.1 M Na2SO4, 25 °C, 15 min preincubation
T5 construct: gene PgiCA

VchCAα = target: T6, VchCAα (Vibrio cholerae, UniProt Q9KMP6); format: biochemical; details: read-out: VchCAα; CO2 hydration, 10 mM HEPES pH 7.5, 0.1 M Na2SO4, 25 °C, 15 min preincubation
T6 construct: gene VC_A0274
T6 sequence (Q9KMP6 21-239 limits assumed): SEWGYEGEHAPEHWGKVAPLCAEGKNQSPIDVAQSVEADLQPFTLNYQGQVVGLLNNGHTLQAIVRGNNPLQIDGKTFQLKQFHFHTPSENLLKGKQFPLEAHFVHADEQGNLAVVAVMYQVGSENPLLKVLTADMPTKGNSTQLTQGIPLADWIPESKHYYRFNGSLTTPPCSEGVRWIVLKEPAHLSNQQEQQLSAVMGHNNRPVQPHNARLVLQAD

T1 sequence (Q9KVT1 1-184): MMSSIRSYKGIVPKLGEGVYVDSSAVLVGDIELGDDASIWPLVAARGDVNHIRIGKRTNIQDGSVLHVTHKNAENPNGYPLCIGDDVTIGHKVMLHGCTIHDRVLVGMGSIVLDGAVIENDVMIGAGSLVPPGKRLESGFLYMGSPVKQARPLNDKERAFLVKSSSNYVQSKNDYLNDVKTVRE

| Structure (SMILES) | Ki (VchCAγ; read-out: VchCAγ) | Ki (PgiCAβ; read-out: VchCAγ) | Ki (TweCAδ; read-out: VchCAγ) | Ki (VchCAβ; read-out: VchCAβ) | Ki (PgiCAγ; read-out: PgiCAγ) | Ki (VchCAα) | Ki (TweCAδ; read-out: TweCAδ) | Ki (PgiCAβ; read-out: PgiCAβ) | Ki (TweCAδ; read-out: PgiCAβ) | Ki (VchCAγ; read-out: VchCAα) | Ki (PgiCAβ; read-out: VchCAα) | Ki (TweCAδ; read-out: VchCAα) | Ki (PgiCAγ; read-out: VchCAα) | Ki (VchCAβ; read-out: VchCAα) |
| --- | --- | --- | --- | --- | --- | --- | --- | --- | --- | --- | --- | --- | --- | --- |
| O=C(NO)Nc1ccccc1 [compound 1, 1: H] | > 10 µM | > 10 µM | > 10 µM | 1.81 µM | 6.42 µM | 7.26 µM | – | – | – | – | – | – | – | – |
| Cc1ccc(NC(=O)NO)cc1 [compound 2, 2: 4-CH3] | > 10 µM | > 10 µM | > 10 µM | 0.483 µM | 0.298 µM | 0.111 µM | – | – | – | – | – | – | – | – |
| Cc1ccccc1NC(=O)NO [compound 3, 3: 2-CH3] | > 10 µM | > 10 µM | > 10 µM | 0.377 µM | 4.21 µM | 0.829 µM | – | – | – | – | – | – | – | – |
| O=C(NO)Nc1ccc(Cl)cc1 [compound 4, 4: 4-Cl] | > 10 µM | > 10 µM | – | 0.541 µM | 0.934 µM | 4.41 µM | 8.74 µM | – | – | – | – | – | – | – |
| O=C(NO)Nc1ccccc1Cl [compound 5, 5: 2-Cl] | > 10 µM | > 10 µM | > 10 µM | 0.0642 µM | 3.03 µM | 5.94 µM | – | – | – | – | – | – | – | – |
| O=C(NO)Nc1cccc(Cl)c1 [compound 6, 6: 3-Cl] | > 10 µM | > 10 µM | > 10 µM | 0.0603 µM | 0.819 µM | 4 µM | – | – | – | – | – | – | – | – |
| O=C(NO)Nc1ccc([N+](=O)[O-])cc1 [compound 7, 7: 4-O2N] | > 10 µM | > 10 µM | > 10 µM | 0.0541 µM | 2.7 µM | 0.509 µM | – | – | – | – | – | – | – | – |
| O=C(NO)Nc1ccccc1[N+](=O)[O-] [compound 8, 8: 2-O2N] | 5.69 µM | – | – | 0.0525 µM | 0.0823 µM | 0.536 µM | – | > 10 µM | > 10 µM | – | – | – | – | – |
| Cc1ccc(C)c(NC(=O)NO)c1 [compound 9, 9: 2,5-Me2] | 5.5 µM | – | – | 0.0593 µM | 0.0844 µM | 0.0975 µM | – | > 10 µM | > 10 µM | – | – | – | – | – |
| O=C(NO)Nc1ccc(F)cc1 [compound 10, 10: 4-F] | – | – | – | – | – | > 10 µM | – | – | – | > 10 µM | > 10 µM | > 10 µM | > 10 µM | – |
| CCOC(=O)c1cccc(NC(=O)NO)c1 [compound 11, 11: 3-EtOOC] | – | – | – | – | – | > 10 µM | 8.49 µM | – | – | > 10 µM | > 10 µM | – | > 10 µM | > 10 µM |
| Cc1cc(C)cc(NC(=O)NO)c1 [compound 12, 12: 3,5-Me2] | – | – | – | – | 5.49 µM | > 10 µM | 0.0578 µM | – | – | > 10 µM | > 10 µM | – | – | > 10 µM |
| CCOc1ccccc1NC(=O)NO [compound 13, 13: 2-EtO] | – | – | – | – | > 10 µM | > 10 µM | 0.0333 µM | – | – | – | > 10 µM | – | – | > 10 µM |
| CSc1cccc(NC(=O)NO)c1 [compound 14, 14: 3-MeS] | – | – | – | – | 0.0598 µM | > 10 µM | 0.052 µM | – | – | – | > 10 µM | – | – | > 10 µM |
| Cc1cc(NC(=O)NO)ccc1F [compound 15, 15: 4-F-3-Me] | – | – | – | – | 2.88 µM | > 10 µM | 3.94 µM | – | – | > 10 µM | > 10 µM | – | – | > 10 µM |
| O=C(NO)Nc1c(F)c(F)c(F)c(F)c1F [compound 16, 16: F5] | – | – | – | – | 3.48 µM | > 10 µM | 3.41 µM | – | – | > 10 µM | > 10 µM | – | – | > 10 µM |
| O=C(NO)Nc1ccc(C(F)(F)F)cc1 [compound 17, 17: 4-CF3] | – | – | – | – | 2.63 µM | > 10 µM | 4.64 µM | – | – | > 10 µM | > 10 µM | – | – | > 10 µM |
| O=C(NO)Nc1ccc(C(F)(F)F)cc1Cl [compound 18, 18: 4-CF3-2-Cl] | 5.43 µM | – | – | – | – | > 10 µM | 0.856 µM | – | – | – | – | – | > 10 µM | > 10 µM |
| COc1ccccc1NC(=O)NO [compound 19, 19: 2-MeO] | 4.75 µM | – | – | – | – | > 10 µM | 2.88 µM | – | – | – | – | – | > 10 µM | > 10 µM |
| O=C(NO)Nc1ccc(Oc2ccccc2)cc1 [compound 20, 20: 4-PhO] | – | – | – | – | – | > 10 µM | 0.761 µM | – | – | > 10 µM | – | – | > 10 µM | > 10 µM |

— PMC6060382, “Inhibition of α-, β-, γ-, and δ-carbonic anhydrases from bacteria and diatoms with N′-aryl-N-hydroxy-ureas” (Journal of Enzyme Inhibition and Medicinal Chemistry, 2018)
